The results in this text go back to article PMC10350924, “Design, Synthesis, and Pharmacological Characterization of a Potent Soluble Epoxide Hydrolase Inhibitor for the Treatment of Acute Pancreatitis” (Journal of Medicinal Chemistry, 2023).

One data set has as its target T1, 5-LOX (Homo sapiens, UniProt P09917).
T1 sequence (P09917 1-674): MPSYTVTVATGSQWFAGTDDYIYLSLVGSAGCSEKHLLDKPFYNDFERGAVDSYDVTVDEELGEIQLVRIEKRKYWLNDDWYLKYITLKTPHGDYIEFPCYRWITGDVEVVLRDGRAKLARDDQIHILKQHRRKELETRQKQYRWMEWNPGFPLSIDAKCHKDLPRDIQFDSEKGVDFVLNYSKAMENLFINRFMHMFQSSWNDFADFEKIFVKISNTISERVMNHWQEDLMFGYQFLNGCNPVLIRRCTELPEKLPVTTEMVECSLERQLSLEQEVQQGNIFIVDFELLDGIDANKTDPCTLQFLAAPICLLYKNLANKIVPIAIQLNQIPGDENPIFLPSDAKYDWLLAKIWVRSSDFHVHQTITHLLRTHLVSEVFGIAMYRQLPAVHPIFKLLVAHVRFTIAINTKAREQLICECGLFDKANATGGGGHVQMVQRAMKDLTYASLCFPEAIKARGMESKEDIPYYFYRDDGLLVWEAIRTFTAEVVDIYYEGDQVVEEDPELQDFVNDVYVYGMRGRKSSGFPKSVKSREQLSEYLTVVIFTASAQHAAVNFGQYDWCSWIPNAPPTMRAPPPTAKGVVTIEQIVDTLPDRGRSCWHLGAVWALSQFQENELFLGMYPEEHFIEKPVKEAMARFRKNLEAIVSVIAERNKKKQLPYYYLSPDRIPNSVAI
Description: 5-LOX product formation in human activated PMNL (A23187). It is filed as cell-based. On the set-up: Freshly isolated PMNL (5 × 10^6) suspended in PBS pH 7.4 with 1 mg/mL glucose were preincubated with the test compounds; endogenous in cells; host or cells: human PMNL from donor blood; remaining activity: dose or concentration left out as unconfirmed. The following applies: for remaining activity at 10 µM: read-out: 5-LOX residual activity in PMNL (%) at 10 μM; for remaining activity: PMNL, read-out: 5-LO residual activity in PMNL (%). Here is the method: Human PMNL were freshly isolated from leukocyte concentrates that were obtained from the Institute for Transfusion Medicine of the University Hospital Jena (Germany). […] These volunteers regularly donated blood (every 8–12 weeks) and were physically inspected by a clinician. […] Leukocytes were concentrated by centrifugation (4000g/20 min/20 °C) of freshly withdrawn blood. […] PMNL were obtained from the cell pellet. […] The reaction was stopped with an equal volume of methanol containing PGB1 (200 ng) as internal standard. Major 5-LOX products (all-trans isomers of LTB and 5-HETE, and additionally LTB4) were extracted and analyzed by RP-HPLC as described for the determination of cell-free 5-LOX activity.

The next data set in a line: Mouse plasma stability. The class given is in vitro ADME. The following applies: 37 °C, 5 μM. Here is the method: Mouse plasma is warmed to 37 °C for 10 min, mixed, and centrifuged to pellet any aggregated protein. Biotransformation is initiated by adding 1.25 μL of compound solution (5 μM final incubation concentration), and the incubation was carried out at 37 °C for 120 min in a Thermomixer comfort (Eppendorf, Hamburg, Germany). At each specified time point (0, 60, and 120 min), compounds were removed into 200 μL of ice-cold methanol containing IS to stop degradation. Finally, the concentration of the test compound was quantified by LC-MS. All experiments were performed in triplicate. Procaine (low stability) and procainamide (high stability) were used as controls.

Data set [1] can be described thus: Chemical stability in phosphate buffer pH 7.4. The class given is physicochemical. The following applies: 5 μM. An excerpt: The chemical and metabolic stabilities of compounds 6, 27, 28, 30, and 36 were monitored using a UHPLC system (Shimadzu, Kyoto, Japan) consisting of a CBM-40 Lite controller, two LC-40B X3 solvent delivery modules, an SPD-M40 photodiode array detector, a CTO-30A column oven and, a SIL-40AC X3 autosampler. The UHPLC system was coupled online to LCMS-2020 single quadrupole mass spectrometer (Shimadzu, Kyoto, Japan) equipped with an electrospray ionization (ESI) source operating in positive mode.
The chromatographic separation was accomplished on a Luna Omega 1.6 μm Polar C18 100 Å, 100 mm × 2.1 mm (Phenomenex, Bologna, Italy) maintained at 40 °C. The optimal mobile phase consisted of 0.1% HCOOH/H2O v/v (A) and 0.1% HCOOH/ACN v/v (B) delivered at a constant flow rate of 0.3 mL min^–1. Analysis was performed in gradient elution as follows: 0–8.00 min, 30–95% B; 8.00–10.00 min, isocratic to 95% B, then 5 min for column re-equilibration.
The ESI was operated in positive mode, with the following parameters: interface temperature, 350 °C; interface voltage, 4.5 kV; DL (desolvation line) temperature, 250 °C; block heater temperature, 200 °C; nebulizing gas flow (N2), 1.5 L min^–1; drying gas pressure, 15 L min^–1. Quantification was performed in SIM (single-ion monitoring) mode.
For the calibration curves, the primary stock solutions (10 mM) of compounds 6, 27, 28, 30, and 36 were prepared in DMSO. The working standard solutions were prepared by serial dilution of the stock solutions in methanol to obtain necessary concentrations (0.25–10 μM). A solution containing an internal standard (IS: tolbutamide) was prepared at 10 μM in methanol. Quantitation of compounds 6, 27, 28, 30, and 36 was performed using linear regression of the response ratios obtained from the calibration curve to calculate the corresponding amount (6: y = 1.97175x + 0.53508, R^2 = 0.9998; 27: y = 2.90980x + 0.03831, R^2 = 0.9993; 28: y = 2.05962x + 0.02242, R^2 = 0.9994; 30: y = 1.98080x + 0.14962, R^2 = 0.9997; 36: y = 4.59526x – 0.13459, R^2 = 0.9991).
1.25 μL of test compounds (5 μM final incubation concentration) was incubated in 200 μL of phosphate buffer at pH 7.4. At each specified time point (0, 0.5, 1, 1.5, and 2 h), the analyte was removed into 200 μL of ice-cold methanol containing internal standard (tolbutamide) to stop degradation. Finally, the concentration of the test compound was quantified by LC-MS. The percentage of compound remaining (relative to the 0 min time point) at the individual time points is then reported. All experiments were performed in triplicate.

The mark [2] stands for this setting: 0.5 h, compound remaining relative to 0 min.

SMILES strings stand for the structures. Several values for one entry are separate records, joined by “and”; a condition that tells them apart may be missing. Equal values may be shown once.

As for `O=C(Nc1ccc2c(c1)CCN2Cc1ccc(F)cc1)NC12C[C@H]3C[C@@H](C1)C[C@@H](C2)C3` [Compound 6, 1-((3S,5S,7S)-Adamantan-1-yl)-3-(1-(4-fluorobenzyl)indolin-5-yl)urea], the remaining activity at 10 µM on 5-LOX (human activated PMNL) was found to be 35.4 ± 3.1%. Also, on 5-LOX, the remaining activity came out at 35.4 ± 3.1%. Moreover, the IC50 – broadly, the midpoint of a concentration-inhibition curve – against 5-LOX (human activated PMNL) is 240 nM and 243 nM. Moreover, the mouse plasma stability in the data set “Mouse plasma stability” (1.0 h) is 97.3 ± 0.7%; in “Mouse plasma stability” (2.0 h) it was 100.7 ± 2.3%. Also, the “chemical stability in phosphate buffer (pH 7.4)” value (“chemical stability” for short) in data set [1] (setting [2]) is on record as 97.9 ± 3.5%; in data set [1] (1.0 h) it was 100.7 ± 4.3%; in data set [1] (1.5 h), 100.5 ± 3.5%; in data set [1] (2.0 h), 102.4 ± 0.1%.
On to `O=C(NCC12C[C@H]3C[C@@H](C1)C[C@@H](C2)C3)Nc1ccc2c(ccn2Cc2ccc(F)cc2)c1` [Compound 27, 1-(((3R,5R,7R)-Adamantan-1-yl)methyl)-3-(1-(4-fluorobenzyl)-1H-indol-5-yl)urea], for which the remaining activity at 10 µM at 5-LOX (human activated PMNL) was determined as 59.4 ± 6.7%. The remaining activity on 5-LOX was found to be 59.4 ± 6.7%. Besides, the mouse plasma stability in “Mouse plasma stability” (1.0 h) is on record as 100.3 ± 0.2%; in the data set “Mouse plasma stability” (2.0 h), 102.2 ± 4.8%. Moreover, the “chemical stability” value in data set [1] (setting [2]) is reported as 99.2 ± 1.7%; in data set [1] (1.0 h), 95.5 ± 4.5%; in data set [1] (1.5 h), 98.9 ± 0.2%; in data set [1] (2.0 h) it was 96.4 ± 0.5%.
As for `CC(C)c1ccc(Cn2ccc3cc(NC(=O)NCC45C[C@H]6C[C@@H](C4)C[C@@H](C5)C6)ccc32)cc1` [Compound 28, 1-(((3R,5R,7R)-Adamantan-1-yl)methyl)-3-(1-(4-isopropylbenzyl)-1H-indol-5-yl)urea], the remaining activity at 10 µM on 5-LOX (human activated PMNL) is 93.6 ± 4.8%. Also, the remaining activity at 5-LOX was 93.6 ± 4.8%. Also, the mouse plasma stability in the data set “Mouse plasma stability” (1.0 h) is given as 98.4 ± 3.3%; in the data set “Mouse plasma stability” (2.0 h), 101.3 ± 3.8%. Also, the “chemical stability” value in data set [1] (setting [2]) is 102.0 ± 2.7%; in data set [1] (1.0 h), 101.7 ± 1.9%; in data set [1] (1.5 h), 99.7 ± 2.3%; in data set [1] (2.0 h) it was 102.4 ± 1.8%.
As for `O=C(NCC12C[C@H]3C[C@@H](C1)C[C@@H](C2)C3)Nc1ccc2c(ccn2CCc2ccc(F)cc2)c1` [Compound 30, 1-(((3R,5R,7R)-Adamantan-1-yl)methyl)-3-(1-(4-fluorophenethyl)-1H-indol-5-yl)urea], at 5-LOX (human activated PMNL), the remaining activity at 10 µM was 65.1 ± 6.2%. In addition, the remaining activity at 5-LOX was found to be 65.1 ± 6.2%. The mouse plasma stability in the data set “Mouse plasma stability” (1.0 h) was 96.2 ± 3.4%; in the data set “Mouse plasma stability” (2.0 h), 97.0 ± 2.3%. Further, the “chemical stability” value is recorded as 102.5 ± 1.1% in data set [1] (setting [2]), 100.3 ± 1.9% in data set [1] (1.0 h), 99.6 ± 0.2% in data set [1] (1.5 h) and 102.4 ± 3.5% in data set [1] (2.0 h).
On to `O=C(NCC12C[C@H]3C[C@@H](C1)C[C@@H](C2)C3)Nc1ccc2c(ccn2C(=O)c2ccc(F)cc2)c1` [Compound 36, 1-(((3R,5R,7R)-Adamantan-1-yl)methyl)-3-(1-(4-fluorobenzoyl)-1H-indol-5-yl)urea], for which the remaining activity at 10 µM on 5-LOX (human activated PMNL) worked out at 58.1 ± 5.5%. Moreover, the remaining activity on 5-LOX was determined as 58.1 ± 5.5%. The results for the mouse plasma stability in the data set “Mouse plasma stability” (1.0 h) and in “Mouse plasma stability” (2.0 h) were 98.2 ± 2.0% and 96.2 ± 2.8%, respectively. Besides, the “chemical stability” value in data set [1] (setting [2]) is listed as 96.3 ± 3.2%; in data set [1] (1.0 h) it was 95.2 ± 1.8%; in data set [1] (1.5 h) it was 99.8 ± 2.1%; in data set [1] (2.0 h), 92.4 ± 2.0%.
